According to patent US12285407B2, “Bis-indolylmethane derivatives and uses thereof” (The University of The West Indies, priority 2018, dated 2025):

Tests used:
[1] = system: Klebsiella pneumoniae ATCC 49472; assay: Broth microdilution MIC of SP-BIMs; assay type: cell-based; conditions: ATCC49472, SP-BIM alone, read-out: MIC Klebisella pneumoniae ATCC 49472
[2] = system: Candida albicans ATCC 22972; assay: Broth microdilution MIC of SP-BIMs; assay type: cell-based; conditions: ATCC22972, SP-BIM alone, read-out: MIC Candida albicans ATCC 22972
[3] = system: Escherichia coli ATCC 35218; assay: Broth microdilution MIC of SP-BIMs; assay type: cell-based; conditions: ATCC35218, SP-BIM alone, read-out: MIC Escherichia coli ATCC 35218
[4] = system: sheep erythrocyte; assay: Hemotoxicity (hemolysis assay); assay type: cell-based; conditions: 2% sheep erythrocyte solution; SP-BIMs 6, 11 and 18 at concentrations between 125-16 μg mL^−1
Protocol: Hemotoxicity of the SP-BIMs were assessed following Wauford, “Hemolysis Assay”, protocols.io/view/hemolysis-assay-fxkbpkw (2016). Briefly, twofold serial dilutions of each test SP-BIM were added to 2% sheep erythrocyte solution and incubated for 30 minutes at 37° C. Samples were centrifuged at 2500 g for 5 minutes and the absorbance of the supernatants measured at 541 nm. Values were represented as percent hemolysis using freeze thaw cells as 100% lysis.

[5] = system: Corynebacterium diphtheriae ATCC 27010; assay: Broth microdilution MIC of SP-BIMs; assay type: cell-based; conditions: ATCC27010, SP-BIM alone, read-out: MIC Corynebacterium diphtheriae ATCC 27010
[6] = system: Pseudomonas aeruginosa ATCC 27853; assay: Broth microdilution MIC of SP-BIMs; assay type: cell-based; conditions: ATCC27853, SP-BIM alone, read-out: MIC Pseudomonas aeruginosa ATCC 27853
[7] = system: Staphylococcus aureus ATCC 12600; assay: Broth microdilution MIC of SP-BIMs; assay type: cell-based; conditions: ATCC12600, SP-BIM alone, read-out: MIC Staphylococcus aureus ATCC 12600
[8] = system: Enterococcus faecium ATCC 19434; assay: Broth microdilution MIC of SP-BIMs; assay type: cell-based; conditions: ATCC19434, SP-BIM alone, read-out: MIC Enterococcus faecium ATCC 19434
[9] = system: Gram-negative bacteria; assay: Adjuvant broth microdilution; assay type: cell-based; conditions: SP-BIM at 50 μg mL^−1
Protocol: To each well, the SP-BIM to be tested was added to a final concentration of 50 μg mL^−1. […] SP-BIMs were assessed as potential adjuvants based on their ability to reduce the MIC of the antibiotic against respective pathogen.

[10] = system: Bacillus cereus ATCC 14579; assay: Broth microdilution MIC of SP-BIMs; assay type: cell-based; conditions: ATCC14579, SP-BIM alone, read-out: MIC Bacillus cereus ATCC 14579
[11] = system: Streptococcus pneumoniae; assay: Adjuvant broth microdilution (antibiotic MIC with SP-BIM at 50 μg/mL); assay type: cell-based; conditions: Streptococcus pneumoniae, Streptococcus pneumonia, SP-BIM at 50 μg mL^−1
[12] = system: Salmonella typhimurium ATCC 14028; assay: Broth microdilution MIC of SP-BIMs; assay type: cell-based; conditions: Salmonella enterica, read-out: MIC Salmonella tvpkimurium ATCC 14028
Source text: Reference microorganisms used in this study included: Bacillus cereus (American Type Culture Collection (ATCC) No. 14579), Streptococcus pyogenes (ATCC No. 19615), Staphylococcus aureus (ATCC No. 12600), Enterococcus faecium (ATCC No. 19434), Corynebacterium diphtheriae (ATCC No. 27010), Escherichia coli (ATCC No. 35218), Salmonella typhimurium (ATCC No. 14028), Pseudomonas aeruginosa (ATCC No. 27853), Klebsiella pneumoniae (ATCC No. 49472), and Candida albicans (ATCC No. 22972).
Prior to each experiment, cultures were streaked onto clean BHI agar plates and incubated at 35° C. for 24 hours. Colonies of the respective cultures were selected and inoculated in phosphate buffer saline (pH 7.5) to a 0.5 McFarland turbidity standard (equivalent to 10^8 CFU mL^−1). The bacterial suspension was then diluted 1:100 in cation adjusted Mueller Hinton Broth (ca-MHB) (Oxoid Ltd, Basingstoke, Hampshire, England).
Stock solutions (50 mg mL^−1) of the SP-BIM test compounds were prepared in DMSO and stored at 4° C. Working preparations of each compound was made up to 1 mg/mL in sterile deionized water with a final DMSO concentration of 10%.
To assess the antibiotic properties of the library of SP-BIMs, the broth microdilution assay was performed in 96-well microplates according to the Clinical and Laboratory Standards Institute 2014 Guidelines (CLSI 2014). The broth microdilution assay was used to determine the minimum inhibitory concentration (MIC). […] Bacterial cells (˜10^6 CFU mL^−1) were inoculated into cation adjusted-Mueller Hinton broth containing the test compound in a twofold serial dilution ranging between 250 μg mL^−1 and 0.02 μg mL^−1. Plates were incubated at 35° C. for 18 hours after which 50 μL of 5% resazurin solution was added to each well. Resazurin is a blue dye which, upon reduction by living cells, turns to a pink resorufin product. Plates were shaken for 1 hour after the addition of the dye. The MIC was recorded as the well with the lowest concentration of test compound where no color change was observed.

[13] = system: Streptococcus pyogenes ATCC 19615; assay: Broth microdilution MIC of SP-BIMs; assay type: cell-based; conditions: ATCC19615, SP-BIM alone, read-out: MIC Streptococcus pyogenes ATCC 19615
[14] = system: Bacillus cereus; assay: Checkerboard synergy (FICI) of antibiotics with SP-BIM; assay type: cell-based; conditions: SP-BIM 9 alone, one value per antibiotic's checkerboard, read-out: MIC SP-BIM 9 only
[15] = system: Klebsiella pneumoniae; assay: as above; assay type: cell-based; conditions: SP-BIM 9 alone, one value per antibiotic's checkerboard, read-out: MIC SP-BIM 9 only
[16] = system: MRSA HS 10132; assay: Systemic non-lethal MRSA infection in mice (organ MRSA load); assay type: in vivo
[17] = system: reference pathogen strains; assay: Checkerboard synergy study, summary over pathogens; assay type: cell-based; conditions: Gram-positive pathogens
[18] = system: Escherichia coli; assay: Checkerboard synergy (FICI) of antibiotics with SP-BIM; conditions: read-out: MIC SP-BIM 9 only, Escherichia coli, SP-BIM 9 alone, one value per antibiotic's checkerboard
[19] = system: Enterococcus faecium; assay: as above; assay type: cell-based
[20] = system: Streptococcus pneumoniae; assay: as above; assay type: cell-based; conditions: Streptococcus pneumoniae
[21] = system: Staphylococcus aureus; assay: as above; assay type: cell-based
[22] = system: Pseudomonas aeruginosa; assay: Rescue concentrations of SP-BIM that reactivate antibiotic; assay type: cell-based; conditions: P. aeruginosa
[23] = read-out: MIC of Kanamvcin with SP-BIM
[24] = read-out: MIC of Vancomvcin with SP-BIM
[25] = ampicillin and SP-BIM 9 at 5 mg kg^−1
[26] = ampicillin and SP-BIM 9 at 10 mg kg^−1
[27] = MRSA, checkerboard with SP-BIM 9

For O=Cc1cccc(C(c2c[nH]c3ccccc23)c2c[nH]c3ccccc23)c1 [SP-BIM 6, 3-(di(1H-indol-3-yl)methyl)benzaldehyde], the MIC [1] was > 250 µg/mL, the MIC [2] was 250 µg/mL and the MIC [3] was > 250 µg/mL. For the same compound, the “hemotoxicity” value [4] was “very hemotoxic”, the MIC [5] was > 250 µg/mL and the MIC [6] was 250 µg/mL. For the same compound, the MIC [7] was > 250 µg/mL, the MIC [8] was > 250 µg/mL and the “potentiating activity for Gram-negative bacteria” value (from here on “potentiating activity”) [9] was “No potentiating activity was observed”. The MIC [10] was > 250 µg/mL, the MIC [11, 23] was 4 µg/mL and the MIC [11, 24] was 0.5 µg/mL. The MIC [12] was 250 µg/mL and the MIC [13] was > 250 µg/mL.

With Oc1cccc(C(c2c[nH]c3ccccc23)c2c[nH]c3ccccc23)c1 [SP-BIM 9, 3-(di(1H-indol-3-yl)methyl)phenol] the MIC [14] was > 250 µg/mL, the MIC [1] was > 250 µg/mL and the MIC [2] was 250 µg/mL. The MIC [3] was > 250 µg/mL, the MIC [15] was ≥ 250 µg/mL and the MIC [5] was > 250 µg/mL. The MIC [6] was 250 µg/mL, the “MRSA counts in the liver” value ([16]; SP-BIM 9 only 5 mg kg^−1) was 3911 CFU g^−1 and the “MRSA load in the spleen” value ([16]; SP-BIM 9 only 5 mg kg^−1) was 7327 CFU g^−1. For the same compound, the “MRSA counts in the liver” value ([16]; SP-BIM 9 only 10 mg kg^−1) was 2861 CFU g^−1, the “MRSA load in the spleen” value ([16]; SP-BIM 9 only 10 mg kg^−1) was 5800 CFU g^−1 and the “MRSA counts in the liver” value [16, 25] was 167 CFU g^−1. For the same compound, the “MRSA load in the spleen” value [16, 25] was 288 CFU g^−1, the “MRSA counts in the liver” value [16, 26] was 189 CFU g^−1 and the “MRSA load in the spleen” value [16, 26] was 211 CFU g^−1. For the same compound, the MIC [7] was > 250 µg/mL, the “FICI with most of the antibiotics” value [17] was ≤ 0.5 and the MIC [18] was ≥ 250 µg/mL. For the same compound, the MIC [8] was > 250 µg/mL, the MIC [10] was > 250 µg/mL and the “MIC of vancomycin with 63 μg mL^−1 SP-BIM 9” value ([19]; Enterococcus faecium strain highly resistant to vancomycin) was “reduced to susceptible levels”. The MIC ([19]; Enterococcus faecium, SP-BIM 9 alone, one value per antibiotic's checkerboard, read-out: MIC SP-BIM 9 only) was ≥ 250 µg/mL, the MIC [11, 23] was 4 µg/mL and the MIC [11, 24] was 0.2 µg/mL. The MIC [12] was 250 µg/mL, the MIC ([20]; Streptococcus pneumonia (title: Streptococcus pyogenes), SP-BIM 9 alone, one value per antibiotic's checkerboard, read-out: MIC SP-BIM 9 only) was > 250 µg/mL and the “effect on MIC of erythromycin” value ([20]; checkerboard with SP-BIM 9) was “no effect was observed”. The “lowering of the MIC of the antibiotics” value ([20]; checkerboard with SP-BIM 9) was “at least 4 fold”, the “MIC of aztreonam in combination with 32 μg mL^−1 of SP-BIM 9” value ([21]; MRSA, checkerboard) was 8 µg/mL and the “effect on MIC of trimethoprim” value [21, 27] was “an increase in the MIC was observed”. The “reduction of MICs of all the antibiotics except trimethoprim” value [21, 27] was “at least 4 fold”, the MIC ([21]; Staphylococcus aureus, SP-BIM 9 alone, one value per antibiotic's checkerboard, read-out: MIC SP-BIM 9 only) was > 250 µg/mL and the MIC [13] was > 250 µg/mL.

For Nc1ccc(C(c2c[nH]c3ccccc23)c2c[nH]c3ccccc23)cc1 [SP-BIM 10, 4-(di(1H-indol-3-yl)methyl)aniline], the MIC [1] was > 250 µg/mL, the MIC [2] was 250 µg/mL and the MIC [3] was > 250 µg/mL. The MIC [5] was > 250 µg/mL, the MIC [6] was 250 µg/mL and the MIC [7] was > 250 µg/mL. The MIC [8] was > 250 µg/mL, the “potentiating activity” value [9] was “No potentiating activity was observed” and the MIC [10] was > 250 µg/mL. The MIC [11, 23] was 4 µg/mL, the MIC [11, 24] was 0.5 µg/mL and the MIC [12] was 250 µg/mL. For the same compound, the MIC [13] was > 250 µg/mL.

For Oc1ccccc1C(c1c[nH]c2ccccc12)c1c[nH]c2ccccc12 [SP-BIM 11, bis(indol-3-yl)-2-hydroxyphenylmethane], the MIC [1] was > 250 µg/mL, the MIC [2] was 250 µg/mL and the MIC [3] was > 250 µg/mL. The “hemotoxicity” value [4] was “very hemotoxic”, the MIC [5] was > 250 µg/mL and the MIC [6] was 250 µg/mL. For the same compound, the MIC [7] was > 250 µg/mL, the MIC [8] was > 250 µg/mL and the MIC [10] was > 250 µg/mL. It also gave an MIC [11, 23] of 125 µg/mL, an MIC [11, 24] of 1 µg/mL and an MIC [12] of 250 µg/mL. For the same compound, the MIC [13] was > 250 µg/mL.

With Oc1cc(Br)ccc1C(c1c[nH]c2ccccc12)c1c[nH]c2ccccc12 [SP-BIM 15, 5-bromo-2-(di(1H-indol-3-yl)methyl)phenol] the MIC [1] was > 250 µg/mL, the MIC [2] was 250 µg/mL and the MIC [3] was > 250 µg/mL. The MIC [5] was > 250 µg/mL, the MIC [6] was 250 µg/mL and the MIC [7] was > 250 µg/mL. The MIC [8] was 125 µg/mL, the “potentiating activity” value [9] was “No potentiating activity was observed” and the MIC [10] was 125 µg/mL. It also gave an MIC [11, 23] of 4 µg/mL, an MIC [11, 24] of 0.2 µg/mL and an MIC [12] of 250 µg/mL. The MIC [13] was 125 µg/mL.

COc1ccc(C(c2c[nH]c3ccccc23)c2c[nH]c3ccccc23)cc1 [SP-BIM 18, bis(indol-3-yl)-4-methoxyphenylmethane] was tested, and the MIC [1] was > 250 µg/mL, the MIC [2] was 250 µg/mL and the MIC [3] was > 250 µg/mL. The “hemotoxicity” value [4] was “very hemotoxic”, the MIC [5] was > 250 µg/mL and the MIC [6] was 250 µg/mL. For the same compound, the MIC [7] was > 250 µg/mL, the MIC [8] was > 250 µg/mL and the MIC [10] was > 250 µg/mL. It also gave an MIC [11, 23] of 125 µg/mL, an MIC [11, 24] of 1 µg/mL and an MIC [12] of 250 µg/mL. For the same compound, the MIC [13] was > 250 µg/mL.

Oc1ccc2c(C(c3ccc(Br)cc3)c3c[nH]c4cc(O)ccc34)c[nH]c2c1 [SP-BIM 23, 3,3′-((4-bromophenyl)methylene)bis(1H-indol-6-ol)] was tested, and the “MIC of chloramphenicol in combination with 64 μg/mL SP-BIM 23” value [22] was 4 µg/mL and the MIC ([22]; Pseudomonas aeruginosa, agent alone, read-out: MIC (single agent)) was > 250 µg/mL.
